Tests used:
Sprague-Dawley rats [1] = assay: Cardiac telemetry in the rat (bradycardia assay); type: in vivo; details: oral, vehicle PEG400, heart rate measured over a 120 min period, vs vehicle
Protocol: Animals: Male Sprague-Dawley rats (250-300 g at time of surgery) were implanted by Charles River Laboratories (Wilmington, Mass.) with cardiac transmitting devices (Data Sciences PhysioTel C50-PXT) into the peritoneal space, with a pressure-sensing catheter inserted into the descending aorta. Rats are allowed at least one week to recover. Rats were housed in individual cages and maintained in a humidity-controlled (30-70%) and temperature-controlled (20-22° C.) facility on a 12 h:12 h light/dark cycle (lights on at 7:00 am) with free access to food (Harlan-Teklad, Orange, Calif., Rodent Diet 8604) and water. Rats were allowed one week of habituation to the animal facility before testing. Measurement of cardiovascular parameters: The implanted transmitting devices transmitted continuous measurements of blood pressure (systolic, diastolic, mean arterial, pulse), heart rate, body temperature, and motor activity in freely moving conscious animals. […] Telemetry recording occurred over a 21-h period, starting at noon and continuing until 9:00 am the following day. A maximum of eight rats were tested at a time, and the same eight rats were utilized for all treatment groups in a within-subject design. Drug treatment: […] A full study (vehicle+3 doses) required four separate testing sessions, which occur on Mondays-Tuesdays and Thursdays-Fridays. […]

Female Lewis rats = assay: Collagen-induced arthritis rat model; type: in vivo; details: 0.3, 1 and 3 mg/kg p.o., q.d., day 0 through day 16 (FIG. 3)
Protocol: Female Lewis rats were used in this study. Acclimated animals were anesthetized with isoflurane and given the first collagen injection (day 0). On day 6, they were anesthetized again for the second collagen injection. Collagen was prepared by making a 4 mg/mL solution in 0.01N acetic acid. Equal volumes of collagen and incomplete Freund's adjuvant were emulsified by hand mixing until a bead of this material held its form when placed in water. Each animal received 300 μL of the mixture each time, spread over 3 subcutaneous sites on the back. Treatment (p.o., q.d., 5 mL/kg dosing volume) began on day 0 and continued through day 16 with vehicle or compounds given at 24 h intervals. Rats were weighed on days 0, 3, 6 and 9 through 17 and caliper measurements of the ankles taken on days 9 through 17.

C57BL/6 mice [2] = assay: MOG-induced experimental autoimmune encephalomyelitis (EAE) in mice; type: in vivo, mouse; details: 0.3, 1 and 3 mg/kg orally once a day from day 3 until day 21 (FIG. 4)
S1P1 receptor = S1P1 receptor (Homo sapiens (Human), UniProt P21453); assay: HTRF assay for direct cAMP measurement; type: cell-based; details: recombinant CHO-K1 cells stably transfected with S1P1
Source text: CHO-K1 cells were obtained from ATCC® (Manassas, Va.; Catalog #CCL-61). […] The HTRF® assay has been used to determine EC50 values for S1P1 receptor agonists. Principle of the assay: HTRF® assay kit was purchased from Cisbio-US, Inc. (Bedford, Mass.; Catalog #62AM4PEC). The HTRF® assay supported by the kit is a competitive immunoassay between endogenous cAMP produced by the CHO-K1 cells and tracer cAMP labeled with the dye d2. The tracer binding is visualized by a monoclonal anti-cAMP antibody labeled with Cryptate. The specific signal (i.e., fluorescence resonance energy transfer, FRET) is inversely proportional to the concentration of unlabeled cAMP in the standard or sample. Standard curve: The fluorescence ratio (665 nm/620 nm) of the standards (0.17 to 712 nM cAMP) included in the assay was calculated and used to generate a cAMP standard curve according to the kit manufacturer's instructions. The fluorescence ratio of the samples (test compound or compound buffer) was calculated and used to deduce respective cAMP concentrations by reference to the cAMP standard curve. […] The plate was then further incubated at room temperature for 1 hour, after which the assay plate was read. Assay readout: HTRF® readout was accomplished using a PHERAstar (BMG LABTECH Inc., Durham, N.C.) or EnVision™ (PerkinElmer, Fremont Calif.) microplate reader.

Sprague-Dawley rats [3] = assay: Rat Peripheral Lymphocyte Lowering (PLL) assay; type: in vivo; details: 1.00 mg/kg oral dose, 5 hours post-dose, male Sprague-Dawley rats, vs vehicle (FIG. 2)
Protocol: Animals: Male Sprague-Dawley rats (7 weeks of age at start of study) (Charles River Laboratories) were housed two per cage and maintained in a humidity-controlled (40-60%) and temperature-controlled (68-72° F.) facility on a 12 h: 12 h light/dark cycle (lights on at 6:30 am) with free access to food (Harlan Teklad, Orange, Calif., Rodent Diet 8604) and water. Rats were allowed one week of habituation to the animal facility before testing. PLL Assay: […] Peripheral blood samples were collected at 5 hours post-dose. Blood was collected via indwelling catheter. A complete cell count (CBC), including lymphocyte count, was obtained using a CELL-DYN® 3700 (Abbott Laboratories, Abbott Park, Ill.) instrument. Results are presented in FIG. 2, in which peripheral blood lymphocyte (PBL) count is shown for the 5 hour group.

BALB/c mice = assay: Mouse Peripheral Lymphocyte Lowering (PLL) assay; type: in vivo; details: 1.00 mg/kg oral dose, 5 hours post-dose, male BALB/c mice, vs vehicle (FIG. 1)
Protocol: Animals: Male BALB/c mice (Charles River Laboratories, Wilmington, Mass.) were housed four per cage and maintained in a humidity-controlled (40 to 60%) and temperature-controlled (68 to 72° F.) facility on a 12 h:12 h light/dark cycle (lights on at 6:30 am) with free access to food (Harlan Teklad, Orange, Calif., Rodent Diet 8604) and water. Mice were allowed one week of habituation to the animal facility before testing. PLL Assay: […] Peripheral blood samples were collected at 5 hours post-dose. The mice were anesthetized with isoflurane and blood was collected via cardiac puncture. A complete cell count (CBC), including lymphocyte count, was obtained using a CELL-DYN® 3700 (Abbott Laboratories, Abbott Park, Ill.) instrument. Results are presented in FIG. 1, in which peripheral blood lymphocyte (PBL) count is shown for the 5 hour group.

mice [4] = details: murine; cited from earlier work
mice [5] = details: oral administration to mice; cited from earlier work
[6] = tested on: patients with multiple sclerosis; details: Phase II, relapsing-remitting multiple sclerosis; cited from earlier work
mice [7] = details: by reducing the number of mature osteoclasts attached to the bone surface; cited from earlier work
S1P3 receptor = S1P3 receptor (Homo sapiens (Human), UniProt Q99500); details: due to agonism of the S1P3 receptor; cited from earlier work
[8] = short-term high dose; cited from earlier work
[9] = tested on: dendritic cells infected with Francisella tularensis; details: Bar-Haim et al. 2008; cited from earlier work
C57BL/6 mice [10] = details: prophylactic oral administration, 1 mg/kg, three times a week; cited from earlier work
[11] = spared nerve injury model; cited from earlier work
[12] = Hale et al. 2004; cited from earlier work

Chain of S1P1 receptor (P21453 whole entry): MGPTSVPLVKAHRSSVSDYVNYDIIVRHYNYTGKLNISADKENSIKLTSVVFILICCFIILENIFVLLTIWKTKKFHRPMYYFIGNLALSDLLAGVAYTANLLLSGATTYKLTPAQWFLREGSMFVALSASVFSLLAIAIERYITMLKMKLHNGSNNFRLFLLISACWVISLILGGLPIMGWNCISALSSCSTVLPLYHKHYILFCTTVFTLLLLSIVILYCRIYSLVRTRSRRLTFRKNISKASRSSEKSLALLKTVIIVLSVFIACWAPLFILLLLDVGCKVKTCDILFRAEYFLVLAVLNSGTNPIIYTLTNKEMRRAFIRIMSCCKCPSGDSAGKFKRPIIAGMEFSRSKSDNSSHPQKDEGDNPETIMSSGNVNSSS
Chain of S1P3 receptor (Q99500 whole entry): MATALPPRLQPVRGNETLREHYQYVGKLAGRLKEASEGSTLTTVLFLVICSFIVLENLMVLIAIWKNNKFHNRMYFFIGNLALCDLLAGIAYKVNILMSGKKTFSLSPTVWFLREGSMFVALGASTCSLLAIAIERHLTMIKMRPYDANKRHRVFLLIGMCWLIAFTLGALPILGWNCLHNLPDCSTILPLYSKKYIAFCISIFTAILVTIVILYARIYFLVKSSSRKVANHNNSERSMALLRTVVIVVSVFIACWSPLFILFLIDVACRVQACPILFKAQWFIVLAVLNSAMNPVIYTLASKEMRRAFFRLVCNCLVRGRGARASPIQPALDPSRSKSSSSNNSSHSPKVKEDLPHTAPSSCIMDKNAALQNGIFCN

| Structure (SMILES) | heart rate (bradycardia) (Sprague-Dawley rats [1]) | mean ankle diameter (Female Lewis rats) | severity of disease symptoms (clinical score) in EAE (C57BL/6 mice [2]) | S1P1 receptor agonism (decreased cAMP concentration) (S1P1 receptor) | EC50 (S1P1 receptor; n = 22) | peripheral blood lymphocyte (PBL) count lowering (Sprague-Dawley rats [3]) | peripheral blood lymphocyte (PBL) count lowering (BALB/c mice) | initiation of contact hypersensitivity (mice [4]) | VEGF-induced vascular permeability (mice [5]) | MRI lesions and clinical disease activity [6] | ovariectomy-induced osteoporosis (mice [7]) | adverse event in clinical trials (S1P3 receptor) | ocular infiltrates [8] | migration of infected dendritic cells to the mediastinal lymph node [9] | development of EAMG (C57BL/6 mice [10]) | nociceptive behavior [11] | induction of lymphopenia (PLL) [12] |
| --- | --- | --- | --- | --- | --- | --- | --- | --- | --- | --- | --- | --- | --- | --- | --- | --- | --- |
| O=C(O)C[C@H]1CCc2c1[nH]c1ccc(OCc3ccc(C4CCCC4)c(C(F)(F)F)c3)cc21 [(R)-2-(7-(4-cyclopentyl-3-(trifluoromethyl)benzyloxy)-1,2,3,4-tetrahydrocyclopenta[b]indol-3-yl)acetic acid] | no or substantially no reduction of heart rate | exhibited activity for reducing mean ankle diameter | exhibited activity in the mouse EAE assay | agonist of the S1P1 receptor | 0.102 nM | exhibited activity for inducing PBL lowering (lymphopenia) | exhibited activity for inducing PBL lowering (lymphopenia) | – | – | – | – | – | – | – | – | – | – |
| CCCCCCCCc1ccc(CCC(N)(CO)CO)cc1 [FTY720] | – | – | – | – | – | – | – | impair initiation of murine contact hypersensitivity (CHS) | potently blocked VEGF-induced vascular permeability | reduce the number of lesions detected by magnetic resonance imaging (MRI) and clinical disease activity | relieved ovariectomy-induced osteoporosis | transient asymptomatic bradycardia | rapidly reduced ocular infiltrates | impair migration of dendritic cells infected with Francisella tularensis to the mediastinal lymph node | completely prevented the development of experimental autoimmune myasthenia gravis (EAMG) | reduce the nociceptive behavior | rapidly and reversibly induce lymphopenia |
